PubChem BioAssay AID1259411 (Chemical Carcinogenesis Research Information System (CCRIS), 2018)
Active and inactive are the calls of the source. How the calls were made is not given here.

Test system: rodent carcinogenicity bioassays, tumor incidence
Experiment: CCRIS carcinogenicity studies
How it was run: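 NCI-built, expert-reviewed records of carcinogenicity and related test outcomes (mutagenicity, tumor promotion/inhibition) compiled from published and report sources, historical span 1985-2011, not updated.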

In the case of `Cc1c2ccccc2c(C)c2c1ccc1ccccc12`, the carcinogen call (Species: FISH, Strain/Sex: KING COBRA GUPPY/ MALE, FEMALE, Route: IMMERSION, Dose: 0, 0.86, 3.18, 0.90 PPB (LOW DOSE) GIVEN AS SEPARATE DOSES OVER A 4 WK PERIOD, EACH DOSE GIVEN 6 HR/D FOR 1 DAY, 0, 16.3, Dose: 0, 0.86, 3.18, 0.90 PPB (LOW DOSE) GIVEN AS SEPARATE DOSES OVER A 4 WK PERIOD, EACH DOSE GIVEN 6 HR/D FOR 1 DAY, 0, 16.3, Tumor Site: Type of Lesion: LIVER: HEPATOCELLULAR ADENOMA, HEPATOCELLULAR CARCINOMA) is reported as “active; positive”, the carcinogen call (Species: FISH, Strain/Sex: SHEEPSHEAD MINNOW/MALE, FEMALE, Route: IMMERSION, Dose: 0, 1, 30, 1200 PPB APPROXIMATE CONCENTRATIONS ADMINISTERED 1/WK FOR 6 OR 24 HR FOR 1 OR 2 WK (STUDY DURATION: 39 WK), Dose: 0, 1, 30, Tumor Site: Type of Lesion: LIVER: ALTERED FOCI, HEPATOCELLULAR ADENOMA OR HEPATOCELLULAR CARCINOMA) is reported as “active; positive” and the carcinogen call (Species: HAMSTER, Strain/Sex: SYRIAN/FEMALE, Route: TONGUE, Dose: 0, 0.10 ML OF A 0.5% ACETONE SOLUTION TO BORDER OF MIDDLE THIRD PORTION OF TONGUE 3/WK FOR 4 WK (STUDY DURATION: 11 WK)) is reported as “inactive; negative”. For the same molecule, the carcinogen call (Species: HAMSTER, Strain/Sex: SYRIAN/FEMALE, Route: TONGUE, Dose: 0, 0.10 ML OF A 0.5% ACETONE SOLUTION TO BORDER OF MIDDLE THIRD PORTION OF TONGUE 3/WK FOR 6 WK (STUDY DURATION: 11 WK), Tumor Site: Type of Lesion: TONGUE: CARCINOMA) was “active; positive”, the carcinogen call (Species: HAMSTER, Strain/Sex: SYRIAN/FEMALE, Route: TONGUE, Dose: 0, 0.10 ML OF A 0.5% ACETONE SOLUTION TO BORDER OF MIDDLE THIRD PORTION OF TONGUE 3/WK FOR 8 WK (STUDY DURATION: 11 WK), Tumor Site: Type of Lesion: TONGUE: CARCINOMA) was “active; positive” and the carcinogen call (Species: HAMSTER, Strain/Sex: SYRIAN/MALE,FEMALE, Route: DERMAL, Dose: 80 µL OF 1% SOLN IN MINERAL OIL ONCE OR 1/WK FOR 3 WK, Tumor Site: Type of Lesion: INTEGUMENTARY SYSTEM (SKIN): PAPILLOMA, SQUAMOUS CELL CARCINOMA, ANGIOMA, MELANOTIC AND ADNEXAL TUMOR) was “active; positive”. For the same molecule, the carcinogen call (Species: HAMSTER, Strain/Sex: SYRIAN/MALE,FEMALE, Route: DERMAL, Dose: 80 µL OF 1% SOLN IN MINERAL OIL ONCE, Tumor Site: Type of Lesion: INTEGUMENTARY SYSTEM (SKIN): AMELANOTIC DERMAL MELANOCYTOMA) was “active; positive”, the carcinogen call (Species: HAMSTER, Strain/Sex: SYRIAN/MALE,FEMALE, Route: SUBCUTANEOUS, Dose: 0.005-20 MG IN 1 ML OLIVE OIL ONCE, Tumor Site: Type of Lesion: INJECTION SITE: SARCOMA) was “active; positive” and the carcinogen call (Species: MOUSE, Strain/Sex: ALBINO/MALE, Route: DERMAL, Dose: 0.05% IN OLIVE OIL OR ACETONE, 0.2 ML 2/WK, Tumor Site: Type of Lesion: INTEGUMENTARY SYSTEM (SKIN)) was “active; positive”. For the same molecule, the carcinogen call (Species: MOUSE, Strain/Sex: B6C3F1/MALE, Route: INTRAPERITONEAL, Dose: 0, 0.00075, 0.0015, 0.003 UMOL/G IN 10 µL/G TRIOCTANOIN ONCE ON 12 D OF AGE (STUDY DURATION: 10 MO), Dose: 0, 0.00075, 0.0015, 0.003 UMOL/G IN 10 µL/G TRIOCTANOIN ONCE ON 12 D OF AGE (STUDY DURATION: 10 MO), Tumor Site: Type of Lesion: LIVER: HEPATOMA) was “active; positive”, the carcinogen call (Species: MOUSE, Strain/Sex: B6C3F1/MALE, Route: INTRAPERITONEAL, Dose: 0, 0.003, 0.01, 0.03 UMOL/G IN 10 µL/G TRIOCTANOIN ONCE ON 12 D OF AGE (STUDY DURATION: 8.5 MO), Dose: 0, 0.003, 0.01, 0.03 UMOL/G IN 10 µL/G TRIOCTANOIN ONCE ON 12 D OF AGE (STUDY DURATION: 8.5 MO), Tumor Site: Type of Lesion: LIVER: HEPATOMA) was “active; positive” and the carcinogen call (Species: MOUSE, Strain/Sex: B6C3F1/MALE, Route: INTRAPERITONEAL, Dose: 0, 0.01 UMOL/G IN 10 µL/G TRIOCTANOIN ON D 12 OF AGE (STUDY DURATION: 10 MO), Tumor Site: Type of Lesion: LIVER: HEPATOMA) was “active; positive”. For the same molecule, the carcinogen call (Species: MOUSE, Strain/Sex: BALB/FEMALE, Route: GAVAGE, Dose: 0.5-2 MG IN ALMOND OIL 1/2 WK OR 2/WK FOR 8-10 WK, Tumor Site: Type of Lesion: OVARIES: GRANULOSA CELL TUMOR) was “active; positive”, the carcinogen call (Species: MOUSE, Strain/Sex: BALB, Route: SUBCUTANEOUS, Dose: 30 UG IN 0.02 ML OF 1% AQ GEL SUSPENDED ONCE, Tumor Site: Type of Lesion: LUNG: ADENOMA, ADENOCARCINOMA) was “active; positive” and the carcinogen call (Species: MOUSE, Strain/Sex: C57BL/FEMALE, Route: DERMAL, Dose: 2.5 MG OF 0.5% SOLN IN 0.5 ML OLIVE OIL 1/2 WK FOR LIFE, Tumor Site: Type of Lesion: INTEGUMENTARY SYSTEM (SKIN)) was “active; positive”. For the same molecule, the carcinogen call (Species: MOUSE, Strain/Sex: C57BL, Route: DERMAL, Dose: 0.5 ML OF 0.5% SOLN IN OLIVE OIL 1/2 WK FOR 6 WK, Tumor Site: Type of Lesion: OVARIES) was “active; positive”, the carcinogen call (Species: MOUSE, Strain/Sex: C57BL, Route: DERMAL, Dose: 0.5 ML OF 0.5% SOLN IN OLIVE OIL 1/2 WK FOR 6 WK, Tumor Site: Type of Lesion: OVARIES, MAMMARY GLAND) was “active; positive” and the carcinogen call (Species: MOUSE, Strain/Sex: CBA, Route: SUBCUTANEOUS, Dose: 30 UG IN 15 µL OF 1% AQ GEL ONCE, Tumor Site: Type of Lesion: LUNG) was “active; positive”. For the same molecule, the carcinogen call (Species: MOUSE, Strain/Sex: CD-1/FEMALE, Route: SUBCUTANEOUS, Dose: 20 MG/KG IN 1% GEL SOLN WITHIN 24 HR OF BIRTH, Tumor Site: Type of Lesion: LUNG: ADENOMA, ADENOCARCINOMA) was “active; positive”, the carcinogen call (Species: MOUSE, Strain/Sex: CD-1/MALE, Route: SUBCUTANEOUS, Dose: 20 MG/KG IN 1% GEL SOLN WITHIN 24 HR OF BIRTH, Tumor Site: Type of Lesion: LUNG: ADENOMA, ADENOCARCINOMA, LIVER: ADENOMA) was “active; positive” and the carcinogen call (Species: MOUSE, Strain/Sex: ICR, Route: SUBCUTANEOUS, Dose: 0.001, 0.01, 0.1 MG IN 0.05 ML TRICAPRYLIN, Dose: 0.001, 0.01, 0.1 MG IN 0.05 ML TRICAPRYLIN, Tumor Site: Type of Lesion: INJECTION SITE: FIBROSARCOMA, SQUAMOUS CELL CARCINOMA, SARCOMA) was “active; positive”. For the same molecule, the carcinogen call (Species: MOUSE, Strain/Sex: MALE,FEMALE, Route: DERMAL, Dose: 0.1 ML OF 0.1% SOLN IN ACETONE 1/WK FOR 9 WK, Tumor Site: Type of Lesion: INTEGUMENTARY SYSTEM (SKIN): PAPILLOMA, MALIGNANT PAPILLOMA) was “active; positive”, the carcinogen call (Species: MOUSE, Strain/Sex: SENCAR/FEMALE, Route: GAVAGE, Dose: 0, 20, 60, 200 UG IN 0.1 ML CORN OIL 1/D 5 D/WK FOR 6 WK (STUDY DURATION: 53 WK), Dose: 0, 20, 60, 200 UG IN 0.1 ML CORN OIL 1/D 5 D/WK FOR 6 WK (STUDY DURATION: 53 WK), Tumor Site: Type of Lesion: LYMPHATIC SYSTEM: LYMPHOMA, MAMMARY GLAND: CARCINOMA) was “active; positive” and the carcinogen call (Species: MOUSE, Strain/Sex: SWISS/FEMALE, Route: DERMAL, Dose: 0, 1, 4, 8 NMOL IN 100 µL ACETONE 2/WK FOR 40 WK (STUDY DURATION: 48 WK), Dose: 0, 1, 4, 8 NMOL IN 100 µL ACETONE 2/WK FOR 40 WK (STUDY DURATION: 48 WK), Tumor Site: Type of Lesion: SKIN: TUMORS) was “active; positive”. The carcinogen call (Species: MOUSE, Strain/Sex: SWISS/FEMALE, Route: DERMAL, Dose: 20-500 UG IN ACETONE ONCE, Tumor Site: Type of Lesion: INTEGUMENTARY SYSTEM (SKIN): SQUAMOUS CELL CARCINOMA, SARCOMA, EPITHELIOMA) was “active; positive”, the carcinogen call (Species: MOUSE, Strain/Sex: SWISS/FEMALE, Route: DERMAL, Dose: 100, 200 UG IN 50 µL ACETONE ONCE, Tumor Site: Type of Lesion: INTEGUMENTARY SYSTEM (SKIN): PAPILLOMA, CARCINOMA, SARCOMA) was “active; positive” and the carcinogen call (Species: MOUSE, Strain/Sex: SWISS/MALE,FEMALE, Route: SUBCUTANEOUS, Dose: 0.9 MG SUSPENDED IN 0.45 ML 1% AQ GEL ONCE, Tumor Site: Type of Lesion: INJECTION SITE: FIBROSARCOMA, SQUAMOUS CELL CARCINOMA) was “active; positive”.
